Data taken from ChEMBL document CHEMBL1154198, “Chemical genetics of Plasmodium falciparum” (Nature, 2010).

What was measured:
Plasmodium falciparum [1] = experiment: ST_JUDE: Plasmodium falciparum K1 EC50 (uM) as measured by SYBR green dye; type: functional, organism-based
Plasmodium falciparum [2] = experiment: ST_JUDE: Plasmodium falciparum 3D7 EC50 (uM) as measured by SYBR green dye; type: functional, organism-based

Row | SMILES | EC50 (Plasmodium falciparum [1]) | EC50 (Plasmodium falciparum [2])
1 | CCOC(=O)c1cc(NC(=O)CSc2nc3ccccc3[nH]2)ccc1Cl | 3.22 µM | 2.17 µM
2 | COc1ccc(O)c(CN2CCN(Cc3ccc(C)cc3)CC2)c1 | 0.988 µM | 1.62 µM
3 | CCOc1ccc2nc(C)cc(Nc3ccc4c(c3)OCCO4)c2c1 | 9.41 µM | > 15 µM
4 | CCCCc1ccc2nc(C)c(CN3CCC(C)CC3)c(O)c2c1 | > 15 µM | > 15 µM
5 | CCOc1cc(C2Nc3cccc4cccc(c34)N2)ccc1O | > 15 µM | > 15 µM
6 | CSc1ccccc1C(=O)Nc1nc(-c2ccccn2)cs1 | 2.04 µM | 6.82 µM
7 | C=CC[n+]1c(/C=C2\C=CC=CN2CC)ccc2cc(C)ccc21 | 2.53 µM | 2.56 µM
8 | C#CC[n+]1ccn2cccc2c1C | 0.607 µM | 1.08 µM
9 | CCOCCCNC(=O)c1cc2c(-c3cccc(OC)c3)nn(C)c2s1 | > 15 µM | > 15 µM
10 | C=C(C)CNc1nncc(-c2ccccc2C)n1 | > 15 µM | > 15 µM
11 | Cc1cc(C)c2ccc(N)nc2c1O | 4.81 µM | 3.86 µM
12 | CCCCOC(=O)c1c(N)n(-c2ccccc2OC)c2nc3ccccc3nc12 | > 15 µM | 3.83 µM
13 | CCOc1ccccc1C(=O)NCCc1csc(-c2ccc(OC)cc2)n1 | 7.53 µM | > 15 µM
14 | CCN1C=CC=C/C1=C/c1ccc2cc(C)ccc2[n+]1CC | 0.453 µM | 0.543 µM
15 | CCCC(=O)NC(c1ccc(C(C)C)cc1)c1cc(Cl)c2cccnc2c1O (stereo unspecified) | > 15 µM | > 15 µM
16 | CCOC(=O)c1ccc2nc(C)cc(Nc3ccc(C)c(Cl)c3)c2c1 | > 15 µM | 1.9 µM
17 | COc1cc(/C=C2/C(=O)NC(=O)N(c3ccc(Cl)cc3)C2=O)cc(Br)c1OC | > 15 µM | > 15 µM
18 | CCCN1C(=O)c2[nH]nc(-c3c(C)cc(C)cc3O)c2C1c1ccc(OC)cc1 (stereo unspecified) | 2.02 µM | 3.36 µM
19 | Cc1ccc(NC(=O)C2c3ccccc3C(=O)N(C3CCCC3)C2c2cccs2)cc1 (stereo unspecified) | 1.44 µM | > 15 µM
20 | C=C(C)CCC(C)N1CCC(n2nccc2NC(=O)Nc2ccccc2Cl)CC1 (stereo unspecified) | > 15 µM | 3.7 µM
21 | O=C(NCCN1CCC(Cc2ccccc2)CC1)c1cc(-c2cccnc2)nc2ccccc12 | 0.942 µM | 1.13 µM
22 | CCOCC(=O)Nc1cc(C(F)(F)F)ccc1Oc1cccc(Br)c1 | > 15 µM | 0.83 µM

Row | SMILES | EC50 (Plasmodium falciparum [1]) | EC50 (Plasmodium falciparum [2])
23 | COc1cccc(-c2nc3cc(NC(=O)c4cccc(Cl)c4Cl)ccc3o2)c1 | > 15 µM | > 15 µM
24 | CCOC(=O)c1cnc2c(C)cc(C)cc2c1NCc1cccnc1 | 6.18 µM | 4.77 µM
25 | Clc1ccccc1Nc1nc(NCc2ccccc2)c2ccccc2n1 | 4.17 µM | 1.54 µM
26 | CO/C(O)=C1\C(C)=NC2=C(C(=O)CC(c3ccc(OC)c(OC)c3)C2)C1c1cccc(C)c1 (stereo unspecified) | 3.86 µM | 3.69 µM
27 | O=C(c1cccc(Cl)c1)N(Cc1cccnc1)c1nc2c(F)cccc2s1 | 6.68 µM | > 15 µM
28 | CC(=O)NC(c1ccc(Cl)cc1Cl)c1ccc2cccnc2c1O (stereo unspecified) | 3.01 µM | 3.22 µM
29 | CCCOc1ccc(-c2nonc2NC(=O)c2cccc(C)c2)cc1OCCC | 1.05 µM | > 15 µM
30 | COc1cccc(NC(=O)C2c3ccccc3C(=O)N(C3CCCC3)C2c2cccs2)c1 (stereo unspecified) | 0.474 µM | 0.45 µM
31 | C/C(=N/NC(N)=S)C1C(=O)c2ccccc2C1=O | > 15 µM | > 15 µM
32 | CCCN(CCC)Cc1c(O)ccc2c(=O)c(Oc3ccc(OC)cc3)c(C(F)(F)F)oc12 | 2.95 µM | > 15 µM
33 | CCCCN(C)CCNC(=O)c1cc2c(-c3ccccc3F)nn(C)c2s1 | > 15 µM | 1.62 µM
34 | Cc1ccc2[nH]c(-c3cccc(-c4nc5cc(C)ccc5[nH]4)n3)nc2c1 | 7.6 µM | 3.23 µM
35 | Cc1cc(C)c2nc(NNC(=O)c3ccc(S(=O)(=O)N(C)C)cc3)sc2c1 | 4.88 µM | 6.63 µM
36 | Cc1cccc(C(=O)ONC(=N)Cc2cccc3ccccc23)c1 | 2.63 µM | 4.7 µM
37 | O=C(Nc1ccc(Cl)cc1C(=O)Nc1cccc(C(F)(F)F)c1)c1ccco1 | > 15 µM | > 15 µM
38 | COc1ccc(OC)c(C2CC(=O)C3=C(C2)NC(=O)CC3c2ccc([N+](=O)[O-])cc2)c1 (stereo unspecified) | 1.53 µM | > 15 µM
39 | CC(=O)N1CCc2c(sc(NC(=O)c3cc([N+](=O)[O-])ccc3Cl)c2C#N)C1 | 1.32 µM | 4.07 µM
40 | O=C(Nc1ccc(Cl)cc1)Nc1cc(OCC(F)(F)F)cc(OCC(F)(F)F)c1 | 0.466 µM | 1.36 µM
41 | Cc1cccc(C)c1OCC(=O)N(Cc1ccc(C(C)C)cc1)Cc1ccco1 | > 15 µM | 4.79 µM
42 | CCOc1cc(-c2nc(-c3ccc(OC)cc3)c(-c3ccccc3)[nH]2)ccc1O | 2.25 µM | 1.48 µM
43 | CCCC(=O)NC(c1ccc(N(CC)CC)cc1)c1cc(Cl)c2cccnc2c1O (stereo unspecified) | 1.14 µM | 0.844 µM
